Series [1] concerns Mus musculus. Put plainly: Antiinflammatory activity against C57BL/6 mouse model of DSS induced ulcerative colitis assessed as reduction in IL-6 level in serum at 20 mg/kg, po administered daily for 10 days. It is filed as functional, organism-based. Conditions: time 10.0 day.
Series [2] deals with Mus musculus. Put plainly: Antiinflammatory activity against C57BL/6 mouse model of LPS induced acute lung injury assessed as reduction in thickening of alveolar septa at 20 mg/kg, po administered every 12 hrs for 3 times followed by LPS stimulation for 6 hrs starting from 30 mins post last dose by H and E staining based analysis. It is filed as functional, organism-based. Particulars: time 42.5 hrs.

Series [3] in a line: Acute toxicity in ICR mouse assessed as effect on daily activities at 500 mg/kg, po measured daily for 10 days. Conditions: in vivo, 240 h, time 10 day. Type of series: organism-based.
Series [4] in a line: AUC (0 to t) in male Sprague-Dawley rat at 10 mg/kg, po by UPLC-MS/MS analysis. It is filed as ADME, organism-based. Conditions: in vivo.
Series [5] deals with Mus musculus. Briefly: Antiinflammatory activity against C57BL/6 mouse model of LPS induced acute lung injury assessed as reduction in inflammatory cell infiltration at 20 mg/kg, po administered every 12 hrs for 3 times followed by LPS stimulation for 6 hrs starting from 30 mins post last dose by H and E staining based analysis. It is filed as functional, organism-based. Conditions: time 42.5 hrs.

Series [6] can be described thus: Acute toxicity in ICR mouse assessed as pathological changes in lung at 500 mg/kg, po measured daily for 10 days by H and E staining based analysis. Type of series: organism-based. Conditions: in vivo, 240 h, time 10 day.
Series [7] concerns Mus musculus. Briefly: Antiinflammatory activity against C57BL/6 mouse model of DSS induced ulcerative colitis assessed as protection against crypt necrosis at 20 mg/kg, po administered daily for 10 days by H and E staining based analysis. It is filed as functional, organism-based. Particulars: time 10.0 day.
In series [8] the test system is J774.A1. Put plainly: Inhibition of MAPK signaling pathway in LPS-stimulated mouse J774.A1 cells assessed as reduction in ERK1/2 phosphorylation at 10 uM pretreated for 2 hrs followed by LPS stimulation and measured after 30 mins by Western blot analysis. Type of series: cell-based. Conditions: time 2.5 hrs.
In series [9] the test system is J774.A1. Briefly: Inhibition of MAPK signaling pathway in LPS-stimulated mouse J774.A1 cells assessed as reduction in JNK phosphorylation at 10 uM pretreated for 2 hrs followed by LPS stimulation and measured after 30 mins by Western blot analysis. It is filed as cell-based. Particulars: time 2.5 hrs. On the technique in general: A western blot detects proteins with antibodies after separation by electrophoresis.

Series [10] is described as follows: Half life in male Sprague-Dawley rat at 10 mg/kg, po by UPLC-MS/MS analysis. Type of series: ADME, organism-based. Particulars: in vivo.
The test system of series [11] is Mus musculus. Briefly: Antiinflammatory activity against C57BL/6 mouse model of DSS induced ulcerative colitis assessed as reversal of splenomegaly at 100 mg/kg, po administered daily for 10 days. It is filed as functional, organism-based. Conditions: time 10.0 day.
Series [12] relates to Mus musculus. Briefly: Antiinflammatory activity against C57BL/6 mouse model of DSS induced ulcerative colitis assessed as reversal of shortened intestinal length due to fecal obstruction at 20 mg/kg, po administered daily for 10 days. Conditions: time 10.0 day. It is filed as functional, organism-based.
Series [13] concerns J774.A1. Briefly: Inhibition of NFkappaB signaling pathway in LPS-induced mouse J774.A1 cells assessed as reduction in IkappaBalpha degradation pretreated for 2 hrs followed by LPS stimulation and measured after 30 mins by Western blot analysis. Type of series: cell-based. Particulars: time 2.5 hrs.
In series [14] the test system is J774.A1. Briefly: Inhibition of MAPK signaling pathway in LPS-stimulated mouse J774.A1 cells assessed as reduction in p38 phosphorylation at 10 uM pretreated for 2 hrs followed by LPS stimulation and measured after 30 mins by Western blot analysis. It is filed as cell-based. Conditions: time 2.5 hrs.
Series [15] can be described thus: Acute toxicity in ICR mouse assessed as pathological changes in kidney at 500 mg/kg, po measured daily for 10 days by H and E staining based analysis. It is filed as organism-based. Particulars: in vivo, 240 h, time 10 day.
The subject of series [16] is J774.A1. Put plainly: Antiinflammatory activity against LPS-induced mouse J774.A1 cells assessed as inhibition of IL-6 release pretreated for 30 mins followed by LPS stimulation and measured after 24 hrs by ELISA. It is filed as functional, cell-based.
Series [17] concerns Mus musculus. Briefly: Antiinflammatory activity against C57BL/6 mouse model of DSS induced ulcerative colitis assessed as protection against goblet cell depletion at 20 mg/kg, po administered daily for 10 days by H and E staining based analysis. Conditions: time 10.0 day. It is filed as functional, organism-based.

Data on 1 compound can be found in ChEMBL document CHEMBL5505996, “Discovery of novel osthole derivatives exerting anti-inflammatory effect on DSS-induced ulcerative colitis and LPS-induced acute lung injury in mice” (Eur J Med Chem, 2024).

Calls of active or inactive are those of the source. The calls are words filed in the database; no cut-off is given here.

One may read the AUC(0-t) as exposure summed from dosing to a finite time, without extrapolation to infinity. A high value points to more exposure. What is called half-life is the time in which the quantity being followed falls by half. A lower half-life goes with fast loss. One may read the IC50 as the midpoint of a concentration-inhibition curve.

With `CC(C)=CCc1c(OCCCCNCCN2CCOCC2)ccc2ccc(=O)oc12`, the result in the series with Mus musculus [1], in the series with Mus musculus [2], in the series with Mus musculus [5], in the series on Mus musculus [7], in the series on Mus musculus [11] and in the series with Mus musculus [12] was Active. In addition, the result in the series with Mus musculus [17] was Active. The Activity result in [3] is “Non-Toxic”; in series [6] it was “Non-Toxic”; in series [15], “Non-Toxic”; in the series on J774.A1 [16] (time 24.5 hrs), “Dose-Dependent Effect”. Further, in [4], the area under the curve AUC(0-t) turned out to be 1120 ng·h/mL. Besides, the inhibition entry in the series with J774.A1 [8] and with J774.A1 [13] was “inactive” in each case. Also, the inhibition entry in the series with J774.A1 [9] and in the series on J774.A1 [14] was “Active” each time. The half-life in [10] is 10.7 h. Further, the IC50 with J774.A1 [16] was found to be 4.23 µM.
